This is an account of results in patent US7960590B2, “Method for producing ethyleneamines from untreated AAN” (BASF SE, priority 2007, dated 2011).

The data set in a line: Solubility of IDAN in THF and in AAN.

In the case of `N#CCNCC#N` [IDAN, iminodiacetonitrile], the dissolved concentration was around 52% (in AAN at 40° C.) and around 35% (in AAN, room temperature, up to). The compound also came in with a solubility (in THF at room temperature) of around 10%.
